Results: US12668611B2, “Cell-penetrating peptide and use thereof” (IMNEWRUN, INC., priority 2020, dated 2026)
Peptide text beside a SMILES is read from it.

Legend:
[1] = system: hCMEC/D3 cells, which are human blood-brain barrier cells; test: In vitro cell permeability analysis (FITC fluorescence imaging, Cytation 5); type: cell-based; conditions: peptides linked to FITC, 4 μM, 2 hours, FIG. 1
Procedure: The present inventors performed in vitro cell permeability analysis on a total of 12 candidate peptides synthesized in Example 1 above. Specifically, hCMEC/D3 cells, which are human blood-brain barrier cells, were seeded in a 96-well plate at 18,000 cells/well, and incubated overnight at 37° C. under CO2 conditions in a endothelial cell growth medium (EGM), which is an […], until the cells reached 80% to 90% of the plate area. Subsequently, the 12 candidate peptides linked to FITC prepared in Example 1-2 and FITC alone, a negative control, were diluted in the medium to 4 μM to prepare an amount to be treated by 100 μl per well. Subsequently, the culture solution was removed from the cell culture plate by suction, and the peptide was diluted and treated with the solution prepared in advance, and then cultured at 37° C. under CO2 conditions for 2 hours. […] After incubation, DAPI and GFP fluorescence were image read by using a Cytation 5 equipment, and the cell nucleus was parcellated with DAPI by image processing. Subsequently, a value of 20 μM of FITC around the cell nucleus was measured, divided by DAPI to obtain a mean-FITC value, and the value was corrected with a value of FITC experimental group, a negative control group, to calculate permeability in the blood-brain barrier cells. […]

hCMEC/D3 cell line = test: Comparative analysis of cell permeation effect through flow cytometry; type: cell-based, human; conditions: 10 μM, 2 hours, p<0.0001, FIG. 4
Procedure: First, with respect to the transpep-1-FITC and angiopep-2-FITC prepared in Example 1-2, an amount of fluorescence inflow into a single cell was identified and quantified through flow cytometry. Specifically, an hCMEC/D3 cell line was aliquoted at 15,000 cells/well using an EGM culture medium containing 2% bovine calf serum (BCS), and 24 hours later, cells were treated with each of the two peptides at a concentration of 10 μM, and then were incubated for 2 hours at 37° C., under CO2 conditions. Thereafter, the cells were washed with 1×PBS, and then were separated from the bottom of the plate by incubating for 3 minutes after 1.1% trypsinase-EDTA (TE) was added, and then an EGM cell culture solution of about 3 times the amount of TE was added, and the sample was centrifuged at 100 rpm for 5 minutes. Next, the supernatant was removed by suction, and the cells were resuspended in 250 μl of 1×PBS, and then transferred to a BD Falcon 12×75 mm Tube with Cell Strainer Cap, and inflow of fluorescence according to each peptide was analyzed by flow cytometry.

C57BL/6 mice = test: Comparative analysis of in vivo blood-brain barrier (BBB) permeability (two-photon microscopy); set-up: species or system mouse; conditions: 15 mg/kg tail vein, imaging for 90 minutes; FIG. 5A-5F
Procedure: Specifically, in order to perform in vivo real-time imaging using a two photon microscopy, operations to install a cranial window were performed in living mice (C57BL/6). Before making the cranial window, inhalation anesthesia was induced with 3% isoflurane in the mice, and the body temperature of the mice was maintained at 36.5° C. to 37.5° C. by using a heating pad. After induction of anesthesia, the concentration of isoflurane was adjusted to 1.5% to maintain anesthesia. In addition, to confirm the degree of maintenance of anesthesia, heart rate and SpO2 were confirmed in real time. Afterwards, craniotomy was performed by using a dental drill in order that the cranial window has a diameter of 3 mm at the skull coordinates of ML, +2.5 mm, and AP, −1.5 mm. After the skull was removed by craniotomy, the brain was covered with a cover glass having a diameter of 4 mm, and the cover glass was adhered by using a cyanoacrylic bond. Next, a head frame, capable of fixing the mouse's head under a two-photon microscope, was attached so that the cover glass would come to the center. After a first bonding of the cover glass and the frame by using the bond, a second bonding was performed and all exposed skulls were covered from the border of the cover glass with dental resin so that imaging could be performed by using a water immersion lens. […]

Molecule | cell permeability (FITC fluorescence) [1] | fluorescence intensity (inflow into single cell) compared to angiopep-2-FITC (hCMEC/D3 cell line) | amount delivered to the extravascular area compared to angiopep-2-FITC (C57BL/6 mice) | fluorescence in the intravascular region (in vivo stability) compared to angiopep-2-FITC (C57BL/6 mice)
GHHERLKSDEWSVTSG (transpep-1) | confirmed to have cell permeability | significantly higher |  | 
CC(C)C[C@H](NC(=O)[C@H](CCCNC(=N)N)NC(=O)[C@H](CCC(=O)O)NC(=O)[C@H](Cc1c[nH]cn1)NC(=O)[C@H](Cc1c[nH]cn1)NC(=O)CNC(=S)Nc1ccc2c(c1)C(=O)OC21c2ccc(O)cc2Oc2cc(O)ccc21)C(=O)N[C@@H](CCCCN)C(=O)N[C@@H](CO)C(=O)N[C@@H](CC(=O)O)C(=O)N[C@@H](CCC(=O)O)C(=O)N[C@@H](Cc1c[nH]c2ccccc12)C(=O)N[C@@H](CO)C(=O)N[C@H](C(=O)N[C@H](C(=O)N[C@@H](CO)C(=O)NCC(=O)O)[C@@H](C)O)C(C)C [transpep-1-FITC] (HELM PEPTIDE1{[O=C1OC2(c3ccc(O)cc3Oc3cc(O)ccc32)c2ccc(NC(=S)[*:2])cc21].G.H.H.E.R.L.K.S.D.E.W.S.V.T.S.G}$$$$V2.0) |  |  | greater | higher in vivo stability
